This passage reports IC50 results from patent US20250197399A1, “COMPOUNDS, COMPOSITIONS, AND METHODS” (Tenvie Therapeutics, Inc., priority 2022, published 2025).

The subject of this assay is NLRP3. The experiment in a line: IL-1β secretion assay in PMA-differentiated, LPS/nigericin-stimulated THP-1 cells (ELISA). Particulars: 25 ng/mL LPS then nigericin, IL-1β in supernatant. In kind it is cell-based. In short, it runs like this:
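PMA-differentiated (5 ng/mL, 40 h) THP-1 cells primed with 25 ng/mL LPS in serum-free medium for 2 h, then compound (0.5% DMSO) for 1 h before nigericin, 2 h at 37 °C. Supernatant IL-1β measured by sandwich ELISA; dose-response normalized to LPS+nigericin high and LPS-only low controls.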

Setting [1] is: Homo sapiens, THP-1, THP-1 cells, read-out: Activity (IC50 class).
The mark [2] stands for this setting: THP-1 cells, read-out: Activity.
The mark [3] stands for this setting: Homo sapiens, THP-1, THP-1 cells, read-out: Activity.
The mark [4] stands for this setting: THP-1 cells, read-out: Activity (IC50 class).

Where two headings read alike, the source gives them in different places.

Consider `C[C@]1(O)C[C@@H](NC(=O)CN2CC3(CC3(F)F)c3cc(C4(F)CC4)ccc3C2=O)C1` (single isomer, unassigned) [Example 23, N-(3-cis-hydroxy-3-methylcyclobutyl)-2-[1′,1′-difluoro-6-(1-fluorocyclopropyl)-1-oxospiro[3H-isoquinoline-4,2′-cyclopropane]-2-yl]acetamide], for which the IC50 was under 1 µM under setting [1] and 0.032 µM under setting [2].

For the compound `O=C(CN1C[C@]2(C[C@H]2F)c2cc(Br)ccc2C1=O)Nc1ncc2cn[nH]c2n1` [Example 54, 2-[(2′R,4S)-6-bromo-2′-fluoro-1-oxospiro[3H-isoquinoline-4,1′-cyclopropane]-2-yl]-N-(1H-pyrazolo[3,4-d]pyrimidin-6-yl)acetamide], the IC50 under setting [3] amounted to 0.005 µM and the IC50 under setting [1] is under 1 µM.

As for `C[C@]1(O)C[C@@H](NC(=O)CN2C[C@]3(C[C@H]3F)c3c(ccc(I)c3F)C2=O)C1` [Example 5, N-(3-cis-hydroxy-3-methylcyclobutyl)-2-[(2′s,4r)-2′,5-difluoro-6-iodo-1-oxospiro[3H-isoquinoline-4,1′-cyclopropane]-2-yl]acetamide], the IC50 reads like this: under setting [3], 0.002 µM; under setting [1], under 1 µM.

With `O=C(CN1CC2(CC2(F)F)c2cc(Br)ccc2C1=O)Nc1ncc2cn[nH]c2n1` (stereo not shown) [Example 63, 2-(6-bromo-1′,1′-difluoro-1-oxospiro[3H-isoquinoline-4,2′-cyclopropane]-2-yl)-N-(1H-pyrazolo[3,4-d]pyrimidin-6-yl)acetamide], the IC50 is 0.034 µM under setting [3] and under 1 µM under setting [1].

For the compound `O=C(CN1CC2(CC2)c2c(ccc(Br)c2F)C1=O)Nc1ncc2nc[nH]c2n1` [Example 62, 2-(6-bromo-5-fluoro-1-oxospiro[3H-isoquinoline-4,1′-cyclopropane]-2-yl)-N-(9H-purin-2-yl)acetamide], the IC50 runs as follows: under setting [3], 0.08 µM; under setting [1], under 1 µM.

`C[C@]1(O)C[C@@H](NC(=O)CN2CC(C(F)(F)F)c3cc(I)ccc3C2=O)C1` (single isomer, unassigned) [Example 10, N-(3-cis-hydroxy-3-methylcyclobutyl)-2-(6-iodo-1-oxo-4-(trifluoromethyl)-3,4-dihydroisoquinolin-2(1H)-yl)acetamide]: the IC50 is 1 to 10 µM under setting [1] and 4.08 µM under setting [2].

With `Cc1cnc(NC(=O)CN2CC3(CC3(F)F)c3c(ccc(C4CC4)c3F)C2=O)nc1` (single isomer, unassigned) [Example 37, N-(5-methylpyrimidin-2-yl)-2-[6-cyclopropyl-1′,1′,5-trifluoro-1-oxospiro[3H-isoquinoline-4,2′-cyclopropane]-2-yl]acetamide], the IC50 is 0.078 µM under setting [2] and under 1 µM under setting [4].

In the case of `Cc1cnc(NC(=O)CN2CC3(CC3(F)F)c3cc(C4(F)CC4)ccc3C2=O)nc1` (single isomer, unassigned) [Example 25, N-(5-methylpyrimidin-2-yl)-2-[1′,1′-difluoro-6-(1-fluorocyclopropyl)-1-oxospiro[3H-isoquinoline-4,2′-cyclopropane]-2-yl]acetamide], the IC50 reads like this: under setting [2], 0.061 µM; under setting [4], under 1 µM.

As for `O=C(CN1CC2(CC2(F)F)c2cc(C(F)(F)F)ccc2C1=O)Nc1ncc(Cl)cn1` (single isomer, unassigned) [Example 38, N-(5-chloropyrimidin-2-yl)-2-[1′,1′-difluoro-6-(trifluoromethyl)-1-oxospiro[3H-isoquinoline-4,2′-cyclopropane]-2-yl]acetamide], the IC50 under setting [1] is under 1 µM and the IC50 under setting [2] turned out to be 0.126 µM.

For the compound `Cc1cnc(NC(=O)CN2CC3(CC3(F)F)c3cc(Br)ccc3C2=O)nc1` (single isomer, unassigned) [Example 18, N-(5-methylpyrimidin-2-yl)-2-[6-bromo-1′,1′-difluoro-1-oxospiro[3H-isoquinoline-4,2′-cyclopropane]-2-yl]acetamide], the IC50 runs as follows: under setting [1], 1 to 10 µM; under setting [2], 3.48 µM.

Turning to `O=C(CN1CC2(CC2(F)F)c2cc(C3(F)CC3)ccc2C1=O)Nc1ncc(F)cn1` (single isomer, unassigned) [Example 27, N-(5-fluoropyrimidin-2-yl)-2-[1′,1′-difluoro-6-(1-fluorocyclopropyl)-1-oxospiro[3H-isoquinoline-4,2′-cyclopropane]-2-yl]acetamide], the IC50 is, setting by setting: under setting [2], 0.128 µM; under setting [4], under 1 µM.

`O=C(CN1CC2(CC2(F)F)c2cc(Br)ccc2C1=O)Nc1ncc(Cl)cn1` (single isomer, unassigned) [Example 17, N-(5-chloropyrimidin-2-yl)-2-[6-bromo-1′,1′-difluoro-1-oxospiro[3H-isoquinoline-4,2′-cyclopropane]-2-yl]acetamide]: the IC50 was 0.028 µM under setting [2] and under 1 µM under setting [4].

Take `O=C(CN1CC2(CC2(F)F)c2c(ccc(C(F)(F)F)c2F)C1=O)Nc1ncc(Cl)cn1` (single isomer, unassigned) [Example 14, N-(5-chloropyrimidin-2-yl)-2-[1′,1′,5-trifluoro-6-(trifluoromethyl)-1-oxospiro[3H-isoquinoline-4,2′-cyclopropane]-2-yl]acetamide]: the IC50 under setting [4] is over 10 µM.

`O=C(CN1CC2(CC2)c2c(ccc(Br)c2F)C1=O)Nc1ncc2cn[nH]c2n1` [Example 46, 2-(6-bromo-5-fluoro-1-oxospiro[3H-isoquinoline-4,1′-cyclopropane]-2-yl)-N-(1H-pyrazolo[3,4-d]pyrimidin-6-yl)acetamide]: the IC50 was 0.038 µM under setting [3] and under 1 µM under setting [1].

As for `O=C(CN1CC2(CC2(F)F)c2c(ccc(Br)c2F)C1=O)Nc1nc2ccccn2n1` (single isomer, unassigned) [Example 31, N-([1,2,4]triazolo[1,5-a]pyridin-2-yl)-2-[6-bromo-1′,1′,5-trifluoro-1-oxospiro[3H-isoquinoline-4,2′-cyclopropane]-2-yl]acetamide], the IC50 under setting [2] was 0.033 µM and the IC50 under setting [4] was under 1 µM.

`O=C(CN1CC2(CC2(F)F)c2c(ccc(Br)c2F)C1=O)Nc1nc2ccccn2n1` (single isomer, unassigned) [Example 30, N-([1,2,4]triazolo[1,5-a]pyridin-2-yl)-2-[6-bromo-1′,1′,5-trifluoro-1-oxospiro[3H-isoquinoline-4,2′-cyclopropane]-2-yl]acetamide]: the IC50 by setting is: under setting [2], 29.2 µM; under setting [4], over 10 µM.

Turning to `O=C(CN1CC2(CC2(F)F)c2cc(C3CC3)ccc2C1=O)Nc1ncc(F)cn1` (single isomer, unassigned) [Example 28, N-(5-fluoropyrimidin-2-yl)-2-[6-cyclopropyl-1′,1′-difluoro-1-oxospiro[3H-isoquinoline-4,2′-cyclopropane]-2-yl]acetamide], the IC50 under setting [1] fell in the range of 1 to 10 µM and the IC50 under setting [2] was 5.73 µM.

`O=C(CN1CC2(CC2(F)F)c2cc(Br)ccc2C1=O)Nc1ncc2cn[nH]c2n1` (single isomer, unassigned) [Example 64, 2-(6-bromo-1′,1′-difluoro-1-oxospiro[3H-isoquinoline-4,2′-cyclopropane]-2-yl)-N-(1H-pyrazolo[3,4-d]pyrimidin-6-yl)acetamide]: the IC50 under setting [1] is under 1 µM and the IC50 under setting [2] was 0.008 µM.

For `O=C(CN1CC2(CC2(F)F)c2cc(Br)ccc2C1=O)Nc1ncc(Cl)cn1` (single isomer, unassigned) [Example 16, N-(5-chloropyrimidin-2-yl)-2-[6-bromo-1′,1′-difluoro-1-oxospiro[3H-isoquinoline-4,2′-cyclopropane]-2-yl]acetamide], the IC50 is 1 to 10 µM under setting [1] and 1.59 µM under setting [2].
